Reference: US20160332971A1, “ARYLQUINOLINE, ARYLQUINOLONE AND ARYLTHIOQUINOLONE DERIVATIVES AND USE THEREOF TO TREAT CANCER” (UNIVERSITY OF KENTUCKY RESEARCH FOUNDATION, priority 2015, published 2016)
Where two headings read alike, the source gives them in different places.

Assays:
[1] = test system: Par-4 secretion from mouse fibroblasts; test: Par-4 secretion into conditioned medium, quantitative Western blot normalised to CollA1; type: cell-based; details: for Par-4 secretory activity (in words): SAR discussion; for Relative Levels of Par-4 Secretion by Arylquins Administered at 500 nM / fold induction at 0.5 µM: 24 h; for Relative Levels of Par-4 Secretion by Arylquins Administered at 500 nM: mouse fibroblasts, CM; for fold induction at 0.5 µM: Mus musculus, Fibroblast, read-out: Ratio of Par-4 Secretion by Arylquin 1 Relative to Vehicle
Method: Calibration curve developed using fixed amounts (0.05-5 ng) of recombinant TRX-Par-4. […] Therefore the concentration was 0.82 ng/40 μL or 540 pM, In the same fashion, calculation for Par-4 concentration using vehicle (v) was 280 pM.
Biological activity of 3-Arylquinolines. […] After 24 h exposure, the CM and lysates were subjected to quantitative Western blot analysis for Par-4 and collagen (CollA1).
Co-immunoprecipitation and Western blot analysis. Protein extracted from cell lysates was filtered, pre-cleared with 25 μL (bed volume) of protein G-Sepharose beads and immunoprecipitated with 1 μg of respective antibodies. The eluted proteins were resolved by SDS-PAGE, and subjected to Western blot analysis as described previously. Bensch, et al. Nature 1968, 218(5147):1176-1177.
Statistical analyses. All experiments were performed in triplicate to verify the reproducibility of the findings. […] Statistical analyses were carried out with Statistical Analysis System software (SAS Institute, Cary, N.C.) and P values were calculated using the Student t test.

Compound	melting point [°C]	Par-4 secretory activity (in words) ([1]; 500 nM)	Relative Levels of Par-4 Secretion by Arylquins Administered at 500 nM ([1]; Table 2)	Relative Levels of Par-4 Secretion by Arylquins Administered at 500 nM ([1]; Table 1)	other results
CN(C)c1ccc2cc(-c3ccccc3F)c(N)nc2c1 [Arylquin 1a]		superior in potency			increase in Par-4 concentrations in the CM from basal levels ([1]; 500 nM, vs vehicle alone): two-fold increase; Par-4 concentration in the CM ([1]; 500 nM, calibration with recombinant TRX-Par-4 (FIG. 3), vehicle 280 pM): 540 pM
CCOC(=O)c1cn2c(n1)c(-c1ccccc1F)cc1ccc(N(C)C)cc12 [Arylquin 8b]		little Par-4 secretory activity			
CN(C)c1ccc2cc(-c3cccc(F)c3F)c(N)nc2c1 [Arylquin 1h, 3-(2,3-Difluorophenyl)-N^7,N^7-dimethylquinoline-2,7-diamine]		equipotent to the original arylquinoline 1a		93.2 ± 10.6	fold induction at 0.5 µM ([1]; 500 nM, Table 1): 3.1
Nc1nc2cc(C(=O)O)ccc2cc1-c1ccccc1F [Arylquin 15h, 2-Amino-3-(2-fluorophenyl)quinoline-7-carboxylic add]		reduced activity	<50		
CSc1nc2cc(N(C)C)ccc2cc1-c1ccccc1F [Arylquin 11, 3-(2-Fluorophenyl)-N,N-dimethyl-2-(methylthio)quinolin-7-amine]		diminished activity to varying degrees	75.4 ± 7.0		fold induction at 0.5 µM ([1]; 500 nM, Table 2): 2.5
CN(C)c1ccc2cc(-c3cc(F)ccc3F)c(N)nc2c1 [Arylquin 1k, 3-(2,5-Difluorophenyl)-N^7,N^7-dimethylquinoline-2,7-diamine]		equipotent to the original arylquinoline 1a		86.2 ± 7.5	fold induction at 0.5 µM ([1]; 500 nM, Table 1): 2.9
CN(C)c1ccc2cc(-c3ccc(Cl)cc3)c(N)nc2c1 [Arylquin 1g, 3-(4-Chlorophenyl)-N^7,N^7-dimethylquinoline-2,7-diamine]	169 to 170	no improvement			
CN1CCN(c2nc3cc(N(C)C)ccc3cc2-c2ccccc2F)CC1 [Arylquin 13b, 3-(2-Fluorophenyl)-N,N-dimethyl-2-(4-methylpiperazin-1-yl)quinolin-7-amine]		diminished activity to varying degrees	65.6 ± 3.6		fold induction at 0.5 µM ([1]; 500 nM, Table 2): 2.2
CN(C)c1ccc2cc(-c3ccccc3F)c(=O)[nH]c2c1 [Arylquin 9]		diminished Par-4 secretory activity relative to arylquinoline 1a	33.2 ± 0.9		Ratio of Par-4 Secretion by Arylquin 1 Relative to Vehicle ([1]; 500 nM, Table 2): 1.1
CN(C)c1ccc2cc(-c3ccccc3Br)c(N)nc2c1 [Arylquin 1c, 3-(2-Bromophenyl)-N^7,N^7-dimethylquinoline-2,7-diamine]	159 to 160	diminished activity		33.6 ± 14.8	
CN(C)c1ccc2cc(-c3ccc(F)c(F)c3)c(N)nc2c1 [Arylquin 1n, 3-(3,4-Difluorophenyl)-N^7,N^7-dimethylquinoline-2,7-diamine]	163 to 164	diminished activity relative to 1a		58.4 ± 14.1	fold induction at 0.5 µM ([1]; 500 nM, Table 1): 2
CN(C)c1ccc2cc3c(nc(N)c4ccccc43)nc2c1 [Arylquin 6, N^9,N^9-Dimethyldibenzo[b,f][1,8]naphthyridine-5,9-diamine]	> 250	biologically inactive			
3-(2,3-Difluorophenyl)-N^7,N^7-dimethylquinoline-2,7-diamine [Arylquin 1i]		comparable to 1a, 1b and 1h		88.4 ± 1.3	
CN(C)c1ccc2cc(-c3c(F)cccc3F)c(N)nc2c1 [Arylquin 1m, 3-(2,6-Difluorophenyl)-N^7,N^7-dimethylquinoline-2,7-diamine]	148 to 150	did not lead to improved activity		44.6 ± 4.6	fold induction at 0.5 µM ([1]; 500 nM, Table 1): 1.5
CN(C)c1ccc2cc3c(nc2c1)[nH]c(=O)c1ccccc13 [Arylquin 7, 9-(Dimethylamino)dibenzo[b,f][1,8]naphthyridin-5(6H)-one]	> 250	biologically inactive			
CN(C)c1ccc2cc(-c3cc(F)cc(F)c3)c(N)nc2c1 [Arylquin 1o, 3-(3,5-Difluorophenyl)-N^7,N^7-dimethylquinoline-2,7-diamine]	160 to 162	diminished activity relative to 1a		47.4 ± 16.8	
CN(C)c1ccc2cc(-c3ccccc3Cl)c(N)nc2c1 [Arylquin 1b, 3-(2-Chlorophenyl)-N^7,N^7-dimethylquinoline-2,7-diamine]	147 to 148	comparable in activity			
CN(C)c1ccc2cc(-c3ccccc3F)c(Cl)nc2c1 [Arylquin 12, 2-Chloro-3-(2-fluorophenyl)-N,N-dimethylquinolin-7-amine]		activity comparable to but not exceeding that of arylquinoline 1a	104.5 ± 26.9		fold induction at 0.5 µM ([1]; 500 nM, Table 2): 3.5
CN(C)c1ccc2cc(-c3cccc(Cl)c3)c(N)nc2c1 [Arylquin 1e, 3-(3-Chlorophenyl)-N^7,N^7-dimethylquinoline-2,7-diamine]	144 to 145	no improvement		78.3 ± 15.3	fold induction at 0.5 µM ([1]; 500 nM, Table 1): 2.6
3-(2,5-Difluorophenyl)-N^7,N^7-dimethylquinoline-2,7-diamine [Arylquin 1l]				64.9 ± 13.1	
CN(C)c1ccc2cc(-c3ccc(F)cc3F)c(N)nc2c1 [Arylquin 1j, 3-(2,4-Difluorophenyl)-N^7,N^7-dimethylquinoline-2,7-diamine]	174 to 175	equipotent to the original arylquinoline 1a		80.8 ± 3.0	fold induction at 0.5 µM ([1]; 500 nM, Table 1): 2.7

The next lines start with results.

melting point [°C]	Compound	Par-4 secretory activity (in words) ([1]; 500 nM)	Relative Levels of Par-4 Secretion by Arylquins Administered at 500 nM ([1]; Table 2)	Relative Levels of Par-4 Secretion by Arylquins Administered at 500 nM ([1]; Table 1)	other results
178 to 180	Nc1nc2cc(Cl)ccc2cc1-c1ccccc1F [Arylquin 15f, 7-Chloro-3-(2-fluorophenyl)quinolin-2-amine]	reduced activity	<50		
194 to 196	Nc1nc2cccc(Cl)c2cc1-c1ccccc1F [Arylquin 15c, 5-Chloro-3-(2-fluorophenyl)quinolin-2-amine]	lower Par-4 secretory activity	63.2 ± 20.5		fold induction at 0.5 µM ([1]; 500 nM, Table 2): 2.1
209 to 210	Nc1nc2cccc(Br)c2cc1-c1ccccc1F [Arylquin 15d, 5-Bromo-3-(2-fluorophenyl)quinolin-2-amine]	lower Par-4 secretory activity	44.6		fold induction at 0.5 µM ([1]; 500 nM, Table 2): 1.5
114 to 116	COc1ccc2cc(-c3ccccc3F)c(N)nc2c1 [Arylquin 15g, 3-(2-Fluorophenyl)-7-methoxyquinolin-2-amine]	reduced activity	<50		
142 to 143	Nc1nc2cccc(F)c2cc1-c1ccccc1F [Arylquin 15b, 5-Fluoro-3-(2-fluorophenyl)quinolin-2-amine]	equipotent to 15a	83.4		fold induction at 0.5 µM ([1]; 500 nM, Table 2): 2.8
138 to 139	Nc1nc2ccc(Cl)cc2cc1-c1ccccc1F [Arylquin 15e, 6-Chloro-3-(2-fluorophenyl)quinolin-2-amine]	equipotent to 15a	81.9 ± 11.2		fold induction at 0.5 µM ([1]; 500 nM, Table 2): 2.8
